Results: US20220249533A1, “COMPOSITIONS AND METHODS FOR BONE REPAIR AND BONE HEALTH” (DUKE UNIVERSITY, priority 2019, published 2022)

What was measured:
OVX mice = test: A2BR agonist BAY 60-6583 treatment of OVX animals; format: in vivo
[1] = test system: mouse mononuclear cells undergoing osteoclast differentiation; test: Osteoclast differentiation with adenosine in vitro; format: cell-based; details: adenosine 30 μg/ml, 6 days of osteoclast differentiation
Method: All buffers used were ice cold, unless otherwise indicated. Briefly, the femur, tibia, humerus, radius, ulna, and vertebra were harvested and crushed with pestle and mortar in harvest buffer [phosphate-buffered solution (PBS) and FBS (2%, v/v)] to release BM tissue. BM was passed through a 70-μm cell strainer and centrifuged at 200 g for 5 min. Cells were resuspended in harvest buffer, gently layered onto Ficoll-Paque PLUS (GE Healthcare, Marlborough, Mass.) at 1:1 ratio, and centrifuged without rotor acceleration and deceleration at 200 g for 15 min. Afterward, the opaque middle layer with cells was collected, washed with harvest buffer, and centrifuged at 200 g for 5 min to yield a cell pellet. Isolated mononuclear cells were cultured in macrophage induction media, containing growth media, prostaglandin E2 (PGE2; 10^−7 M; Santa Cruz Biotechnology, Dallas, Tex.), and M-CSF (10 ng/ml; PeproTech, Rocky Hill, N.J.) at 100,000 cells/cm^2. For osteoclast differentiation, macrophages cultured for 3 days were further induced in osteoclast induction media containing growth media, PGE2 (10^−7 M), M-CSF (10 ng/ml), and RANKL (10 ng/ml; PeproTech). […]

[2] = test system: primary mouse osteoprogenitor cells; test: Adenosine-induced osteogenic differentiation in vitro; format: cell-based; details: adenosine 30 μg/ml, 7 or 14 days, no osteogenic-inducing factors
Source text: Osteoprogenitor cells were isolated as previously described with modifications. All buffers were ice cold, unless otherwise indicated. Briefly, the femur, tibia, humerus, radius, and ulna of mice were harvested. BM was flushed out and discarded. The bone was collected and cut into 1-mm^3 chips in harvest buffer and then digested in digestion buffer containing growth media [α minimum essential medium (αMEM), fetal bovine serum (FBS) (10%, v/v), penicillin/streptomycin (10,000 U/ml; 1%, v/v)], and collagenase type 2 (1 mg/ml, w/v; Worthington Biochemical, Lakewood, N.J.) while shaking at 60 rpm on orbital shaker (catalog no. 51700-13, Cole-Parmer, Vernon Hills, Ill.) in humidified incubator (37° C., 5% CO2) for 1.5 hours. Digested bone chips were rinsed three times with growth media and transferred to two wells of six-well plate for culture. Media were […] days, and bone chips were further cultured for 3 days for cells to adhere and proliferate before passage. For the first passage, cells were treated with 0.25% trypsin-EDTA (Thermo Fisher Scientific) for 3 min, neutralized with growth media, detached with cell scraper, and subcultured along with bone chips. The procedure for subsequent passages were similar but without bone chips. All experiments were performed at three to four passages. […]

[3] = test system: young and old mice bone marrow stromal cells; test: Alizarin Red S deposition, bone marrow stromal cells with adenosine; format: cell-based, mouse
Method: Alizarin Red S, an anthraquinone derivative, may be used to identify calcium in tissue sections. […] Calcium forms an Alizarin Red S-calcium complex in a chelation process, and the end product is birefringent. […]
• Aspirate medium from cell dish (P1 cells). • Rinse with sterile PBS, aspirate. • Add 5 mL trypsin (T75 flask), incubate for 4 min at 37 C. • Add 5 mL GM to stop. • Use cell scraper to further release cells. • Transfer to tube, use additional 5 mL GM to rinse the dish and transfer. • Spin down at 1200 rpm for 4 min. • Resuspend cells, seed into culture plate at 20,000 cells/cm^2. • 2 mL/well in 6-well • 0.5 mL/well in 24-well • Freeze the rest cells in freezing medium. • 10% DMSO • 90% GM • Prepare GM-ADO (60 ug/mL) fresh: • 18 mL GM • 180 uL ADO stock (6 mg/mL) • Refresh medium daily for two weeks with the culture conditions: • GM • GM-ADO • OM (positive control) • In the third week, use phosphate supplementation: • GM+ADO +3 mM phosphate • GM+3 mM phosphate • OM (positive control) • Alizarin red S staining at 14 d and 21 d • Wash cells gently with PBS. • Fix with 4% PFA for 15 min. […] Discard milliQ water. • Alizarin red S quantification • Add 500 ul of HCl (0.5M) to each well for 10 min. at room temp with gentle shaking. • Transfer HCl solution in each well into one 1.5 ml microcentrifuge tube. […]

| Compound | bone tissue, H&E staining (OVX mice; 1 mg/kg intraperitoneally every 2 days, 8 weeks) | OVX changes of vertebra BMD, BV/TV, Tb.N, Tb.Sp by microCT (OVX mice; 8 weeks) | femur bone volume (BV/TV) by microCT (OVX mice; 8 weeks) | mineral apposition rate and bone formation rate (OVX mice; 8 weeks, bone labeling) | maximum load and stiffness of tibia (OVX mice; 8 weeks, compared to the corresponding controls) | TRAP-positive cells on the bone surface (OVX mice; 8 weeks, compared to the vehicle control) | CD73 and CD39 expression levels, immunofluorescence (OVX mice; vehicle- vs BAY 60-6583-treated groups) | expression of Nfatc1, ACP5 and CTSK [1] | expression of osterix (OSX) and osteopontin (OPN) [2] | fold change of alizarin red S deposition, ADO compared to GM ([3]; female) | osteogenic differentiation, alizarin red S deposition ([3]; young and aged cells from either sex, 2D culture, ADO 60 ug/mL) |
| --- | --- | --- | --- | --- | --- | --- | --- | --- | --- | --- | --- |
| N#Cc1c(N)nc(SCC(N)=O)c(C#N)c1-c1ccc(OCC2CC2)cc1 [BAY 60-6583] | attenuation of bone loss | attenuated | bone loss was diminished | abrogation of the bone loss | improved | decreased number | no significant differences |  |  |  |  |
| Nc1ncnc2c1ncn2[C@@H]1O[C@H](CO)[C@@H](O)[C@H]1O [adenosine] |  |  |  |  |  |  |  | reduced expression | up-regulation | larger fold change | induced osteogenic differentiation |
